The text below walks through data of US20140093513A1, “METHODS OF LOWERING PROPROTEIN CONVERSATE SUBTILISIN/KEXIN TYPE 9 (PCSK9)” (Catabasis Pharmaceuticals, Inc., priority 2012, published 2014).

The subject of the first assay is PCSK9. Kind of assay: PCSK9 secretion assay in HepG2 cells (PCSK9 ELISA). Type of assay: cell-based. Particulars: HepG2 cells, 16 hours incubation, at least 6 concentrations. As for the experimental part: HepG2 cells (from ATCC, Catalog no. HB-8065) were maintained in DMEM (Invitrogen) supplemented with 10% fetal bovine serum (Invitrogen). The day prior to the PCSK9 assay, cells are seeded in 96-well collagen coated plates at 25,000 cells/well.
The compounds of the invention were stored at −20° C. until used. The test article compound was dissolved in 100% ethanol to a 50 mM stock solution. This was then diluted in FBS to a final concentration of 1 mM. This solution was placed in a sonicating water bath for 30 minutes. Subsequent dilutions were then made in FBS supplemented with an equivalent volume of ethanol and mixed by vortexing.
HepG2 cells were seeded onto a collagen coated 96-well plate (Becton Dickinson, Catalog no. 35-4407) the day prior to the assay, as described above. The next day, the cell medium was removed, washed once with 100 μL serum free DMEM to remove any residual PCSK9, and replaced with 90 μL of serum free DMEM. Ten microliters of each compound concentration prepared in FBS was then added. Each concentration of compound was tested in triplicate. The compound was incubated with the cells overnight for 16 hours. Following this incubation, 10 μL of AlamarBlue was added to each well and cells incubated for another 2 hours. The plates were then removed and AlamarBlue fluorescence was measured (excitation, 550 nm and […]) to assess cell viability. Cell culture supernatant was then diluted […] 1×RDSP Calibrator Diluent and PCSK9 ELISA was then performed with 50 μL of this diluted sample, as per the manufacturer's instructions. The ELISA was measured on a Victor X5 multilabel plate reader (PerkinElmer) at an absorbance of 450 nm with background correction measured at 550 nm (The PCSK9 Elisa kits can be purchased from R&D System, Catalog no. DPC900).
Alternatively, an IC50 could also be obtained when this type of assay was carried out using at least 6 different concentrations of the test compounds. Table 1 lists the IC50 values for the compounds tested in this assay.
For orientation: An ELISA detects its analyte on a solid surface through an enzyme-linked reagent.
On to `CC/C=C\C/C=C\C/C=C\C/C=C\C/C=C\CCCC(=O)NCCNC(=O)c1ccccc1` [II-1, N-(2-((5Z,8Z,11Z,14Z,17Z)-icosa-5,8,11,14,17-pentaenamido)ethyl)benzamide], for which the IC50 (in general, the midpoint of a concentration-inhibition curve) fell in the range of 25 to 50 µM.

In turn, `CC/C=C\C/C=C\C/C=C\C/C=C\C/C=C\CCCC(=O)NCCNC(=O)c1ccc(=O)n(C)c1` [II-7, N-(2-((5Z,8Z,11Z,14Z,17Z)-icosa-5,8,11,14,17-pentaenamido)ethyl)-1-methyl-6-oxo-1,6-dihydropyridine-3-carboxamide] had an IC50 above 50 µM.

Regarding `CC/C=C\C/C=C\C/C=C\C/C=C\C/C=C\CCCC(=O)NCCNC(=O)c1ccncc1` [II-8, N-(2-((5Z,8Z,11Z,14Z,17Z)-icosa-5,8,11,14,17-pentaenamido)ethyl)isonicotinamide], the IC50 was above 50 µM.

In the case of `CC/C=C\C/C=C\C/C=C\C/C=C\C/C=C\CCCC(=O)NCCNC(=O)c1ccccn1` [II-9, N-(2-((5Z,8Z,11Z,14Z,17Z)-icosa-5,8,11,14,17-pentaenamido)ethyl)picolinamide], the IC50 lay within 25 to 50 µM.

With `CC/C=C\C/C=C\C/C=C\C/C=C\C/C=C\CCCC(=O)NCCNC(=O)c1ccncn1` [II-10, N-(2-((5Z,8Z,11Z,14Z,17Z)-icosa-5,8,11,14,17-pentaenamido)ethyl)pyrimidine-4-carboxamide], the IC50 was above 50 µM.

With `CC/C=C\C/C=C\C/C=C\C/C=C\C/C=C\CCCC(=O)NCCNC(=O)c1cnccn1` [II-11, N-(2-((5Z,8Z,11Z,14Z,17Z)-icosa-5,8,11,14,17-pentaenamido)ethyl)pyrazine-2-carboxamide], the IC50 was above 50 µM.

Consider `CC/C=C\C/C=C\C/C=C\C/C=C\C/C=C\CCCC(=O)NCCNC(=O)C(C)(C)Oc1ccc(Cl)cc1` [II-33, (5Z,8Z,11Z,14Z,17Z)—N-(2-(2-(4-chlorophenoxy)-2-methylpropanamido)ethyl)icosa-5,8,11,14,17-pentaenamide], for which the IC50 is below 25 µM.

Regarding `CC/C=C\C/C=C\C/C=C\C/C=C\C/C=C\C/C=C\CCC(=O)NCCNC(=O)C(C)(C)CCCOc1cc(C)ccc1C` [II-34, (4Z,7Z,10Z,13 Z,16Z,19Z)—N-(2-(5-(2,5-dimethylphenoxy)-2,2-dimethylpentanamido)ethyl)docosa-4,7,10,13,16,19-hexaenamide], the IC50 is below 25 µM.

In the case of `CC/C=C\C/C=C\C/C=C\C/C=C\C/C=C\C/C=C\CCC(=O)NCCNC(=O)C(C)(C)Oc1ccc(C(=O)c2ccc(Cl)cc2)cc1` [II-36, (4Z,7Z,10Z,13Z,16Z,19Z)—N-(2-(2-(4-(4-chlorobenzoyl)phenoxy)-2-methylpropanamido)ethyl)docosa-4,7,10,13,16,19-hexaenamide], the IC50 was below 25 µM.

As for `CC/C=C\C/C=C\C/C=C\C/C=C\C/C=C\CCCC(=O)NCCNC(=O)C(C)(C)Oc1ccc(CCNC(=O)c2ccc(Cl)cc2)cc1` [II-39, 4-chloro-N-(4-((1-((2-((5Z,8Z,11Z,14Z,17Z)-icosa-5,8,11,14,17-pentaenamido)ethyl)amino)-2-methyl-1-oxopropan-2-yl)oxy)phenethyl)benzamide], the IC50 is below 25 µM.

As to `CC/C=C\C/C=C\C/C=C\C/C=C\C/C=C\C/C=C\CCC(=O)NCCOCCOCCOC` [III-1, (4Z,7Z,10Z,13Z,16Z,19Z)—N-(2-(2-(2-methoxyethoxy)ethoxy)ethyl)docosa-4,7,10,13,16,19-hexaenamide], the IC50 is above 50 µM.

`CC/C=C\C/C=C\C/C=C\C/C=C\C/C=C\CCCC(=O)NCCOCCOCCOC` [III-2, (5Z,8Z,11Z,14Z,17Z)—N-(2-(2-(2-methoxyethoxy)ethoxy)ethyl)icosa-5,8,11,14,17-pentaenamide] came in with an IC50 above 50 µM.

For the molecule `CC/C=C\C/C=C\C/C=C\C/C=C\C/C=C\C/C=C\CCC(=O)NCCOCCOCCOCCOC` [III-3, (4Z,7Z,10Z,13Z,16Z,19Z)—N-(2,5,8,11-tetraoxamidecan-13-yl)docosa-4,7,10,13,16,19-hexaenamide], the IC50 is below 25 µM.

For the molecule `CC/C=C\C/C=C\C/C=C\C/C=C\C/C=C\CCCC(=O)NCCNC(=O)c1cnccc1O` [VI-1, 4-hydroxy-N-(2-((5Z,8Z,11Z,14Z,17Z)-icosa-5,8,11,14,17-pentaenamido)ethyl)nicotinamide], the IC50 was above 50 µM.

In turn, `CC/C=C\C/C=C\C/C=C\C/C=C\C/C=C\CCCC(=O)NCCNC(=O)c1cncc(-c2ccccc2)c1` [VI-2, N-(2-((5Z,8Z,11Z,14Z,17Z)-icosa-5,8,11,14,17-pentaenamido)ethyl)-5-phenylnicotinamide] gave an IC50 of 25 to 50 µM.

On to `CC/C=C\C/C=C\C/C=C\C/C=C\C/C=C\CCCC(=O)NCCNC(=O)c1cccnc1O` [VI-3, 2-hydroxy-N-(2-((5Z,8Z,11Z,14Z,17Z)-icosa-5,8,11,14,17-pentaenamido)ethyl)nicotinamide], for which the IC50 is above 50 µM.

For `CC/C=C\C/C=C\C/C=C\C/C=C\C/C=C\CCCC(=O)NCCNC(=O)c1cccnc1-c1ccccc1` [VI-4, N-(2-((5Z,8Z,11Z,14Z,17Z)-icosa-5,8,11,14,17-pentaenamido)ethyl)-2-phenylnicotinamide], the IC50 was above 50 µM.

`CC/C=C\C/C=C\C/C=C\C/C=C\C/C=C\CCCC(=O)NCCNC(=O)c1cncc(O)c1` [VI-5, 5-hydroxy-N-(2-((5Z,8Z,11Z,14Z,17Z)-icosa-5,8,11,14,17-pentaenamido)ethyl)nicotinamide] showed a half-maximal inhibitory concentration (IC50) of 25 to 50 µM.

On to `CC/C=C\C/C=C\C/C=C\C/C=C\C/C=C\CCCC(=O)NCCNC(=O)c1cccnc1C` [VI-6, N-(2-((5Z,8Z,11Z,14Z,17Z)-icosa-5,8,11,14,17-pentaenamido)ethyl)-2-methylnicotinamide], for which the IC50 is 25 to 50 µM.

In turn, `CC/C=C\C/C=C\C/C=C\C/C=C\C/C=C\CCCC(=O)NCCNC(=O)c1cccnc1F` [VI-7, 2-fluoro-N-(2-((5Z,8Z,11Z,14Z,17Z)-icosa-5,8,11,14,17-pentaenamido)ethyl)nicotinamide] returned a 50% inhibitory concentration (IC50) below 25 µM.

Turning to `CC/C=C\C/C=C\C/C=C\C/C=C\C/C=C\CCCC(=O)N1CCC(NC(=O)C2=CC(=O)C(C)(c3ccccc3)O2)CC1` (centres unmarked) [VII-1, N-(1-((5Z,8Z,11Z,14Z,17Z)-icosa-5,8,11,14,17-pentaenoyl)piperidin-4-yl)-5-methyl-4-oxo-5-phenyl-4,5-dihydrofuran-2-carboxamide], the IC50 was below 25 µM.

Turning to `CC/C=C\C/C=C\C/C=C\C/C=C\C/C=C\CCCC(=O)N1CCC(CNC(=O)C2=CC(=O)C(C)(c3ccccc3)O2)CC1` (centres unmarked) [VII-2, N-((1-((5Z,8Z,11Z,14Z,17Z)-icosa-5,8,11,14,17-pentaenoyl)piperidin-4-yl)methyl)-5-methyl-4-oxo-5-phenyl-4,5-dihydrofuran-2-carboxamide], the IC50 is below 25 µM.

`CC/C=C\C/C=C\C/C=C\C/C=C\C/C=C\CCCC(=O)N1CC[C@@H](NC(=O)C2=CC(=O)C(C)(c3ccccc3)O2)C1` (stereo partly drawn) [VII-3, N—((R)-1-((5Z,8Z,11Z,14Z,17Z)-icosa-5,8,11,14,17-pentaenoyl)pyrrolidin-3-yl)-5-methyl-4-oxo-5-phenyl-4,5-dihydrofuran-2-carboxamide] displayed an IC50 below 25 µM.

The molecule `CC/C=C\C/C=C\C/C=C\C/C=C\C/C=C\CCCC(=O)N1CC[C@H](NC(=O)C2=CC(=O)C(C)(c3ccccc3)O2)C1` (stereo partly drawn) [VII-4, N—((S)-1-((5Z,8Z,11Z,14Z,17Z)-icosa-5,8,11,14,17-pentaenoyl)pyrrolidin-3-yl)-5-methyl-4-oxo-5-phenyl-4,5-dihydrofuran-2-carboxamide] came in with an IC50 below 25 µM.

`CC/C=C\C/C=C\C/C=C\C/C=C\C/C=C\CCCC(=O)N1CC[C@H](CNC(=O)C2=CC(=O)C(C)(c3ccccc3)O2)C1` (stereo partly drawn) [VII-5, N—(((R)-1-((5Z,8Z,11Z,14Z,17Z)-icosa-5,8,11,14,17-pentaenoyl)pyrrolidin-3-yl)methyl)-5-methyl-4-oxo-5-phenyl-4,5-dihydrofuran-2-carboxamide] had an IC50 below 25 µM.

The molecule `CC/C=C\C/C=C\C/C=C\C/C=C\C/C=C\CCCC(=O)N1CC[C@@H](CNC(=O)C2=CC(=O)C(C)(c3ccccc3)O2)C1` (stereo partly drawn) [VII-6, N—(((S)-1-((5Z,8Z,11Z,14Z,17Z)-icosa-5,8,11,14,17-pentaenoyl)pyrrolidin-3-yl)methyl)-5-methyl-4-oxo-5-phenyl-4,5-dihydrofuran-2-carboxamide] yielded an IC50 below 25 µM.

In the case of `CC/C=C\C/C=C\C/C=C\C/C=C\C/C=C\CCCC(=O)N1CCC(N(C)C(=O)C2=CC(=O)C(C)(c3ccccc3)O2)CC1` (centres unmarked) [VII-7, N-(1-((5Z,8Z,11Z,14Z,17Z)-icosa-5,8,11,14,17-pentaenoyl)piperidin-4-yl)-N,5-dimethyl-4-oxo-5-phenyl-4,5-dihydrofuran-2-carboxamide], the IC50 is below 25 µM.

`CC/C=C\C/C=C\C/C=C\C/C=C\C/C=C\CCCC(=O)N1CCC(CN(C)C(=O)C2=CC(=O)C(C)(c3ccccc3)O2)CC1` (centres unmarked) [VII-8, N-((1-((5Z,8Z,11Z,14Z,17Z)-icosa-5,8,11,14,17-pentaenoyl)piperidin-4-yl)methyl)-N,5-dimethyl-4-oxo-5-phenyl-4,5-dihydrofuran-2-carboxamide]: the IC50 was below 25 µM.

Still in this assay, the particulars now being: HepG2 cells, at 25 and 50 μM, FIG. 1.
On to `CC/C=C\C/C=C\C/C=C\C/C=C\C/C=C\CCCC(=O)NCCNC(=O)c1ccccc1` [II-1, N-(2-((5Z,8Z,11Z,14Z,17Z)-icosa-5,8,11,14,17-pentaenamido)ethyl)benzamide], for which the “lowering of PCSK9” value was “significant lowering of PCSK9”.
